Data on 19 molecules can be found in patent US10414763B2 (CANCER RESEARCH TECHNOLOGY LIMITED, priority 2014, dated 2019).

Molecules are shown by their SMILES. Where only a bound is given, the exact number is not on record here.

The target of the assay is T1, full-length human PKCι (Homo sapiens, UniProt P41743).
T1 construct: Recombinant, full-length human PKCι expressed in Sf21 insect cells is also commercially available; purchased EMD Millipore; host or cells: Sf21 insect cells (baculovirus)
T1 sequence (P41743 1-596): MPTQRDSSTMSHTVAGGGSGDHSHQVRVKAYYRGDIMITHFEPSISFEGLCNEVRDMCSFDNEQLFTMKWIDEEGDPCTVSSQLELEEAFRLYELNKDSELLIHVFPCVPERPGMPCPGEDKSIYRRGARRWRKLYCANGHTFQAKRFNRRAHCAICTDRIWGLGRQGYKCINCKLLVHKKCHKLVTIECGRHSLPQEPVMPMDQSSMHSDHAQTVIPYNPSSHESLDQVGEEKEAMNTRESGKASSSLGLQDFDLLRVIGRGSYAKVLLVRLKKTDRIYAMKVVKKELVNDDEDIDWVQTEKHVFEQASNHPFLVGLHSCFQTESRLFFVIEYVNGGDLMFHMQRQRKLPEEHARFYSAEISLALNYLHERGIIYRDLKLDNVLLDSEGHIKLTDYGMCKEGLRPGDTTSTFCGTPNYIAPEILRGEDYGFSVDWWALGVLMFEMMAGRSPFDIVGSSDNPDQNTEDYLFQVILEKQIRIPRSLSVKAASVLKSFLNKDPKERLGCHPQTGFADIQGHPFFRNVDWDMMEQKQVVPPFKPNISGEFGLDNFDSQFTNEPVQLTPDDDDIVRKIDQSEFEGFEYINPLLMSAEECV
Briefly: PKCι IC50 IMAP fluorescence polarisation assay, full-length enzyme, 150 μM ATP. The format is biochemical. The note with it: read-out: IC50 in IMAP assay against full length PKCi at 150 μM ATP. The text has this:
Assays are based on the ability of PKCι to phosphorylate a commercially available peptide substrate in vitro. The peptide substrate is FAM-PKCε pseudopeptide derived peptide, and comprises the amino acid sequence 5FAM-ERMRPRKRQGSVRRRV-NH2. Recombinant, full-length human PKCι expressed in Sf21 insect cells is also commercially available. Recombinant, kinase-domain human PKCι is expressed and purified in-house.
The procedure below explains how dose response curves for inhibitors of PKCι are obtained. The screen described is for a 384 well format but the assay can be adapted to 1536 or other formats as required.
Compounds to be tested are dissolved in 100% DMSO. Compounds are diluted as required to give a final concentration of 4% DMSO (v/v) in the assay. 1 μl is plated into 384 well black low-binding flat bottomed assay plates which are used immediately. Dilutions and additions of compound to assay plates are carried out using Matrix WellMate® and Matrix PlateMate® Plus liquid handling systems.
On the day of the screen PKCι/substrate working solution, and ATP working solution, are prepared in buffer containing 20 mM tris-HCl pH7.5, 10 mM MgCl2, 0.01% Triton X100, 250 μM EGTA and 1 mM DTT. The final concentration of PKCι used varies depending on the batch of protein but is typically 15 pM. The final concentration of peptide substrate in the assay is 100 nM. ATP is used at a final concentration of 150 μM or 25 μM in the assays containing full-length or kinase-domain PKCι respectively, which corresponds to five times or equal to the KM^APP for ATP for each enzyme, respectively. The final buffer concentration in the assay is 18 mM tris-HCl pH7.5, 9 mM MgCl2, 0.009% Triton X100, 225 μM EGTA and 0.9 mM DTT. Relevant controls are included, namely no compound and no enzyme. 5 μl PKCι/substrate working solution at 30 pM and 200 nM, respectively, is added to the wells, followed by 4 μl ATP working solution at 375 μM or 62.5 μM for full-length or kinase-domain PKCι respectively, using a 16 channel Matrix pipette. The reaction is allowed to incubate for 60 minutes at room temperature, before the reaction is stopped and developed by the addition of 20 μl IMAP™ development reagent (Molecular Devices). IMAP development reagent consists of 0.25% (v/v) IMAP progressive binding reagent, 17% (v/v) IMAP progressive binding buffer A and 3% (v/v) IMAP progressive binding buffer B. The plates are then incubated for 2 hours at room temperature before being read using an appropriate plate reader, for example a Molecular Devices HT Analyst or a BMG Pherastar. Plates are read using a fluorescence polarisation protocol with excitation at 485 nm and emission at 530 nm, and dichroic mirror at 505 nm.
Percentage inhibition values are calculated from fluorescence polarisation values, using the no compound and no enzyme control values as 0% and 100% inhibition, respectively. IC50 determination is performed with ExcelFit software (IDBS) using curve fit 205. Z′ factors are determined for each plate tested and are all above 0.5.
Alternatively, compounds were tested for their ability to inhibit the kinase activity of recombinant human baculovirus-expressed PKCiota using the immobilized metal-ion affinity particle (IMAP®) fluorescence polarization detection system (Molecular Devices, Sunnyvale, Calif.). PKCiota/IMAP® substrate mixture (2×) was prepared in 1×IMAP assay buffer (Molecular Devices) containing 1 mM DTT so that the final assay concentrations were 15 pM PKCiota (EMD Millipore, Billerica, Mass.) and 100 nM 5-fluorescein-amidite (FAM)-PKC ? -pseudosubstrate (5-FAM-ERMRPRKRQGSVRRRV-NH2) (Molecular Devices). The 2× working solution was added at 5 μL/well into a 384-well black, non-binding, flat bottom assay plate (Corning, Corning, N.Y.). […]
For orientation: In fluorescence polarisation assays a small probe gives low polarisation when free and higher when bound to something large.
As usually defined, the IC50 is the concentration that inhibits the measured activity by half. As for `CC1(C)CNCC[C@@H]1Nc1nc(-c2ccnc3[nH]c(-c4cccnc4)cc23)nc2cncc(C(F)(F)F)c12` [Example 372, N-[(4S)-3,3-dimethyl-4-piperidyl]-2-[2-(3-pyridyl)-1H-pyrrolo[2,3-b]pyridin-4-yl]-5-(trifluoromethyl) pyrido[3,4-d]pyrimidin-4-amine], the IC50 was less than 0.1 µM. For the molecule `CN(c1nc(-c2ccnc3[nH]c4ccccc4c23)nc2cncc(C3CCC3)c12)C1CCCNCC1` (stereo not shown) [Example 44, Azepan-4-yl-[5-cyclobutyl-2-(9H-pyrido[2,3-b]indol-4-yl)-pyrido[3,4-d]pyrimidin-4-yl]-methyl-amine], the IC50 is less than 0.1 µM.

Regarding `CN(c1nc(-c2ccnc(Nc3ncn(-c4ccccc4)n3)c2)nc2cncc(C3CC3)c12)C1CCNCC1(C)C` (racemic) [Example 234, rac-{5-Cyclopropyl-2-[2-(1-phenyl-1H-1,2,4-triazol-3-ylamino)-pyridin-4-yl]-pyrido[3,4-d]pyrimidin-4-yl}-(3,3-dimethyl-piperidin-4-yl)-methyl-amine], the IC50 is less than 0.1 µM. In the case of `CS(=O)(=O)c1cc2c(-c3nc(N4CCNCC4)c4c(C5CCC5)cncc4n3)ccnc2[nH]1` [Example 120, 5-Cyclobutyl-2-(2-methanesulfonyl-1H-pyrrolo[2,3-b]pyridin-4-yl)-4-piperazin-1-yl-pyrido[3,4-d]pyrimidine], the IC50 is less than 0.1 µM. Turning to `CN(c1nc(-c2ccnc3[nH]c(-c4ccccc4F)cc23)nc2cncc(C3CC3)c12)[C@H]1CCNCC1(C)C` [Example 396, {5-Cyclopropyl-2-[2-(2-fluoro-phenyl)-1H-pyrrolo[2,3-b]pyridin-4-yl]-pyrido[3,4-d]pyrimidin-4-yl}-((S)-3,3-dimethyl-piperidin-4-yl)-methyl-amine], the IC50 was less than 0.1 µM. `CC1(C)CNCCC1Nc1nc(-c2ccnc(Nc3ncc(Cl)cc3F)c2)nc2cncc(C3CCC3)c12` (stereo not shown) [Example 88, {2-[2-(5-Chloro-3-fluoro-pyridin-2-ylamino)-pyridin-4-yl]-5-cyclobutyl-pyrido[3,4-d]pyrimidin-4-yl}-(3,3-dimethyl-piperidin-4-yl)-amine]: the IC50 was less than 0.1 µM. As to `CC1(C)CNCC[C@@H]1Nc1nc(-c2ccnc(Nc3ncc(Cl)cc3F)c2)nc2cncc(C3CCC3)c12` [Example 316, {2-[2-(5-Chloro-3-fluoro-pyridin-2-ylamino)-pyridin-4-yl]-5-cyclobutyl-pyrido[3,4-d]pyrimidin-4-yl}-((S)-3,3-dimethyl-piperidin-4-yl)-amine], the IC50 is less than 0.1 µM. For `O[C@H]1CNCC[C@H]1Nc1nc(-c2ccnc(Nc3ccc4ccccc4n3)c2)nc2cncc(C3CCC3)c12` (racemic) [Example 270, rac-(3S,4R)-4-{5-Cyclobutyl-2-[2-(quinolin-2-ylamino)-pyridin-4-yl]-pyrido[3,4-d]pyrimidin-4-ylamino}-piperidin-3-ol], the IC50 was less than 0.1 µM.

Take `CC1(C)CNCC[C@@H]1Nc1nc(-c2ccnc(Nc3nc(F)cc(F)c3F)c2)nc2cncc(C3CCC3)c12` [Example 326, 5-Cyclobutyl-N-[(4S)-3,3-dimethyl-4-piperidyl]-2-[2-[(3,4,6-trifluoro-2-pyridyl)amino]-4-pyridyl]pyrido[3,4-d]pyrimidin-4-amine]: the half-maximal inhibitory concentration (IC50) is less than 0.1 µM. The value for `FC(F)(F)c1cncc2nc(-c3ccnc4[nH]c5ccccc5c34)nc(NC3CCNCC3)c12` [Example 348, Piperidin-4-yl-[2-(9H-pyrido[2,3-b]indol-4-yl)-5-trifluoromethyl-pyrido[3,4-d]pyrimidin-4-yl]-amine] was less than 0.1 µM; that for `FC(F)(F)c1cc2c(-c3nc(N4CC[C@H]5NCC[C@H]54)c4c(C5CC5)cncc4n3)ccnc2[nH]1` (racemic) [Example 19, (±)-5-Cyclopropyl-4-(3,6-cis)-hexahydro-pyrrolo[3,2-b]pyrrol-1-yl-2-(2-trifluoromethyl-1H-pyrrolo[2,3-b]pyridin-4-yl)-pyrido[3,4-d]pyrimidine] was less than 0.1 µM. Regarding `NC(=O)C1CC(Nc2nc(-c3ccnc4[nH]c5ccccc5c34)nc3cncc(C4CCC4)c23)CC1N` (stereo not shown) [Example 377, 2-amino-4-[[5-cyclobutyl-2-(9H-pyrido[2,3-b]indol-4-yl)pyrido[3,4-d]pyrimidin-4-yl]amino]cyclopentane carboxamide], the IC50 was in the range of 0.1 to 1 µM.

As for `c1ccc(-n2cnc(Nc3cc(-c4nc(N5CCC6CNCCC65)c5c(C6CC6)cncc5n4)ccn3)n2)cc1` (stereo not shown) [Example 235, [4-[5-Cyclopropyl-4-(octahydro-pyrrolo[3,2-c]pyridin-1-yl)-pyrido[3,4-d]pyrimidin-2-yl]-pyridin-2-yl}-(1-phenyl-1H-1,2,4-triazol-3-yl)-amine], the IC50 is less than 0.1 µM.

For the molecule `Fc1ccc(-c2cc3c(-c4nc(N5CCNCC5)c5c(C6CC6)cncc5n4)ccnc3[nH]2)c(F)n1` [Example 40, 5-Cyclopropyl-2-[2-(2,6-difluoro-pyridin-3-yl)-1H-pyrrolo[2,3-b]pyridin-4-yl]-4-piperazin-1-yl-pyrido[3,4-d]pyrimidine], the IC50 was less than 0.1 µM. To `O[C@H]1CNCC[C@H]1Nc1nc(-c2ccnc3[nH]c4ccccc4c23)nc2cncc(C(F)(F)F)c12` (racemic) [Example 349, rac-(3S,4R)-4-[2-(9H-Pyrido[2,3-b]indol-4-yl)-5-trifluoromethyl-pyrido[3,4-d]pyrimidin-4-ylamino]-piperidin-3-ol] belongs 0.1 to 1 µM; to `c1cncc(-c2cc3c(-c4nc(N[C@H]5CCCNCC5)c5c(C6CC6)cncc5n4)ccnc3[nH]2)c1` [Example 369, (S)-Azepan-4-yl-[5-cyclopropyl-2-(2-pyridin-3-yl-1H-pyrrolo[2,3-b]pyridin-4-yl)-pyrido[3,4-d]pyrimidin-4-yl]-amine], less than 0.1 µM.

For the molecule `c1cc(-c2nc(N3CCNCC3)c3c(C4CCC4)cncc3n2)cc(Nc2nc(C3CC3)cs2)n1` [Example 38, [4-(5-Cyclobutyl-4-piperazin-1-yl-pyrido[3,4-d]pyrimidin-2-yl)-pyridin-2-yl]-(4-cyclopropyl-thiazol-2-yl)-amine], the IC50 was less than 0.1 µM. As to `c1ncc(-c2cc3c(-c4nc(N5CCNCC5)c5c(C6CCC6)cncc5n4)ccnc3[nH]2)cn1` [Example 131, 5-Cyclobutyl-4-piperazin-1-yl-2-(2-pyrimidin-5-yl-1H-pyrrolo[2,3-b]pyridin-4-yl)-pyrido[3,4-d]pyrimidine], the half-inhibitory concentration (IC50) is less than 0.1 µM. Consider `OC1CNCCC(Nc2nc(-c3ccnc4[nH]c5ccccc5c34)nc3cncc(C4CCC4)c23)C1` (racemic) [Example 230, Cis- or trans-(±)-5-[5-Cyclobutyl-2-(9H-pyrido[2,3-b]indol-4-yl)-pyrido[3,4-d]pyrimidin-4-ylamino]-azepan-3-ol], for which the IC50 is less than 0.1 µM.
